From a melting point compilation (Tetko et al.)

| melting point | SMILES |
| --- | --- |
| 177 °C | O=C1/C(=N/Nc2ccncc2)C(C(F)(F)F)=NN1c1ccccc1 |
| 233 to 235 °C | O=C(O)C=Cc1ccc(Sc2ccc(Cl)cc2)c([N+](=O)[O-])c1 |
| 184 °C | CC(=O)/N=c1\sc(C(C)=O)nn1-c1ccccc1[N+](=O)[O-] |
| 137 to 139 °C | Cc1ccc(C=C(Oc2cccc(C)c2)c2nc3ccccc3s2)cc1 |
| 135 to 137 °C | NC(=O)CC[C@H](NC(=O)OCc1ccccc1)C(=O)O |
| 108 °C | Cc1cnccc1N |
| 84 °C | CCCc1nc(OC(C)=O)n(-c2ccccc2)n1 |
| 300 °C | Nc1nc(=O)c2[nH]nnc2[nH]1 |
| 265 to 266 °C | NN1C(=O)c2cccc3cccc(c23)C1=O |
| 177 °C | CC(=O)N1CCc2cc([N+](=O)[O-])ccc21 |
| 75 to 76 °C | Nc1cccc(C2OCCCO2)c1 |
| 56 to 58 °C | CCN(C(=S)Cl)c1ccccc1 |
| 129 to 132 °C | COc1ccc(C(=O)CC#N)cc1 |
| 165 °C | CN(C)c1ccc(C(Cl)=NO)cc1 |
| 48 °C | COc1ccc(CC#N)cc1F |
| 308 to 309 °C | CN(C)c1ccc(/C=C(/C#N)c2nc3ccccc3c(=O)[nH]2)cc1 |
| 227 °C | c1ccc(-c2c(-c3[nH]c4ccccc4c3-c3ccccc3)[nH]c3ccccc23)cc1 |
| 60 °C | C#CCOc1ccc(Cc2ccc(O)cc2)cc1 |
| 230 °C | Cc1cc(C(=O)O)c(C)n1-c1ccc(Cl)cc1 |
| 232 °C | O=C1CCc2ccc(O)cc2N1 |
| 204 °C | C/C(=N\NC(N)=O)c1ccc(C)cc1 |
| 156 °C | N#Cc1c(O)cccc1F |
| 103 °C | NS(=O)(=O)Cc1ccccc1 |
| 280 °C | NC(=O)c1cccc(C(N)=O)c1 |
| 41 °C | CC12CCC(C(C(=O)Oc3ccccc3)C1)C2(C)C (centres undefined) |
| 240 °C | O=[N+]([O-])c1cccc(-c2nnc3n2CN(c2cccc([N+](=O)[O-])c2)CS3)c1 |
| 41 to 43 °C | FC(F)(F)c1ccc(N=C=S)cc1 |

| melting point | SMILES |
| --- | --- |
| 238 °C | Cn1c(/C(C#N)=N/Nc2ccc([N+](=O)[O-])cc2)nc2ccccc21 |
| 134 °C | c1ccc(OCc2nnc3sc(-c4cccc5ccccc45)nn23)cc1 |
| 84 to 86 °C | C=CCOc1ccc2c(=O)cc(C(=O)OCC)oc2c1CCC |
| -23 °C | O=[N+]([O-])CCc1ccccc1 |
| 62 °C | Cc1cc(C)c2c(=O)n3c(cc2c1)CCCC3 |
| 118 °C | Cc1ccc(S(=O)(=O)CC(=O)O)cc1 |
| 215 °C | CC1=NNC(=O)C1=NNc1ccc(Cl)cc1 |
| 127 to 129 °C | CCOC(=O)NC(=S)Nc1cccc(C)n1 |
| 43 to 45 °C | FC(F)(F)c1cc(-n2cccc2)cc(C(F)(F)F)c1 |
| 21.5 °C | Cc1c(Cl)cccc1C#N |
| 164 to 165 °C | CCOC(=O)c1c(NC(=O)Nc2cccc(Cl)c2)sc2c1CCCC2 |
| 271 °C | COc1ccc2cc(C(=O)c3cc4ccc(OC)cc4oc3=O)c(=O)oc2c1 |
| 135 °C | Brc1noc2ncccc12 |
| 185 to 189 °C | Cc1nc(N)ccc1[N+](=O)[O-] |
| 172 °C | CC(C)Oc1ccc(C(=O)NS(=O)(=O)c2ccc(N)cc2)cc1 |
| 45 to 48 °C | CCCCCCCCCCCCOc1ccccc1OCCCCCCCCCCCC |
| 137 to 138 °C | CCOC(=O)C(C#N)=Cc1ccc(Cl)cc1 |
| 124 °C | CCc1oc2ccccc2c1C(=O)c1ccc(O)cc1 |
| 88 to 90 °C | N#CCCn1cccc(C(F)(F)F)c1=O |
| 136 °C | O=[N+]([O-])c1cc([N+](=O)[O-])c(OCCO)cc1OCCO |
| 278 °C | c1cc2ccc3ccc4ccc5cccc6c(c1)c2c3c4c56 |
| 228 to 232 °C | O=c1[nH]c2ccc(Br)cc2s1 |
| 193 °C | N#C/C(=N\Nc1ccc(S(=O)(=O)O)cc1)c1nc2ccccc2s1 |
| 87 °C | COC(=O)c1cc(O)ccc1O |
| 248 to 250 °C | O=C(O)c1cccc(C(=O)O)n1 |
| 56 to 58 °C | O=Cc1csc2ccccc12 |
| 157 to 158 °C | O=C(OCCc1cc([N+](=O)[O-])c(CCOC(=O)c2ccccc2)cc1[N+](=O)[O-])c1ccccc1 |

Further lines, the compound ahead of its results:

| SMILES | melting point |
| --- | --- |
| CCCCCCCCN1CCCC1=O | -25 °C |
| O=C(O)Cc1ccc(CBr)cc1 | 179 °C |
| C#CCCCCCCCCCCCCC | 10 °C |
| FC(F)(F)c1nc(C(F)(F)F)nc(C(F)(F)F)n1 | -24.8 °C |
| CN1C(=O)NC(=O)C(C)(C2=CCCCC2)C1=O (centres undefined) | 146 °C |
| COC(=O)c1ccc(CCl)o1 | 32 to 36 °C |
| O=Cc1cc([N+](=O)[O-])ccc1N1CCCC1 | 136 to 138 °C |
| CC(C)CCOC(=O)C(=O)OCCC(C)C | -9 °C |
| COc1cc(/C=C/[N+](=O)[O-])c([N+](=O)[O-])cc1OC | 168 to 169 °C |
| CC1(c2ccccc2)C(=O)NC(=O)NC1=O | 224 °C |
| CCC(N)C(=O)O (centres undefined) | 304 °C |
| C[C@H](O)[C@@H](N)C(=O)O | 274 °C |
| CCC1(O)CCC2C3CCC4=CC(=O)CCC4C3CCC21C (centres undefined) | 140 °C |
| CCC(C)(O)C(=O)O (centres undefined) | 74 °C |
| CCCCCCCCBr | -55 °C |
| C=C(C)CCCCCCCC | -51 °C |
| NS(=O)(=O)c1cc(Cl)c(Cl)c(S(N)(=O)=O)c1 | 229 °C |
| Cc1[nH]c(=O)n(C(C)C)c(=O)c1Br | 158 °C |
| O=C1CN2CCOC2(c2ccccc2Cl)c2cc(Cl)ccc2N1 (centres undefined) | 203 °C |
| O=C(c1ccc(OCc2ccccc2)cc1)c1cn(C(=O)c2ccc(OCc3ccccc3)cc2)c2ccccc12 | 181 °C |

| SMILES | melting point |
| --- | --- |
| CSc1nc(N)nc(C(C)(C)C)n1 | 102 to 104 °C |
| O[C@H]1CCC[C@@H]1O | 55 °C |
| CC1(C)CCC(Cc2ccc(Cl)cc2)C1(O)Cn1cncn1 (centres undefined) | 112 °C |
| O=CC(Br)(Br)Br | -57.5 °C |
| O=c1[nH]cc(C(F)(F)F)c(=O)[nH]1 | 316 °C |
| CCS(=O)CC | 14 °C |
| Cc1ccccc1N | -16.3 °C |
| Nc1c(Br)cc(Br)cc1[N+](=O)[O-] | 130 °C |
| Cc1cc(O)c(C(=O)O)c(O)c1 | 176 °C |
| COC(=O)c1sc(C(C)(C)C)cc1N | 94 to 95 °C |
| Cc1ccc(C(C)C)c(C)c1 | -82 °C |
| CC(C)(C)c1cc2c(O)c(c1)Cc1cc(C(C)(C)C)cc(c1O)Cc1cc(C(C)(C)C)cc(c1O)Cc1cc(C(C)(C)C)cc(c1O)Cc1cc(C(C)(C)C)cc(c1O)Cc1cc(C(C)(C)C)cc(c1O)C2 | 300 °C |
| CC(C)CCCC(C)O (centres undefined) | -105 °C |
| Clc1cc(Cl)c(I)cc1Cl | 104 °C |
| Cc1c(C)c(Br)c(Br)c(Br)c1Br | 262 °C |
| FC1(F)C(Cl)=C(Cl)C(F)(F)C1(F)F | -106 °C |
| CC(C(=O)O)C(C)C(=O)O (centres undefined) | 120 °C |
| CCOC(N)=S | 41 °C |
| NC(=S)NC(N)=S | 181 to 183 °C |
| O=C(O)C1=CCCCC1 | 38 °C |
